Experimental data reported in publication PMC6085107 (Pain, 2018).
Entries after “also recorded” stand apart in the source; their conditions may differ.

Tests used:
[1] = target: His-nNOS1-299 and GST-NOS1AP400-506 (Homo sapiens, UniProt P29475); test: AlphaScreen nNOS-NOS1AP binding disruption; conditions: 1X PBS, BSA (1mg/mL), Tween-20 (0.1%), 0–200 μM, n = 4–9
[2] = system: mechanical paw withdrawal thresholds, C57BL/6J mice; test: PSNL-induced mechanical allodynia; format: in vivo
[3] = system: cold response times, C57BL/6J mice; test: Paclitaxel-induced cold allodynia; format: in vivo
[4] = system: cold response times, C57BL/6J mice; test: PSNL-induced cold allodynia; format: in vivo
[5] = system: ERK1/2; test: Western blot pERK1/2 in lumbar spinal cord; format: in vivo, mouse; conditions: n = 5
[6] = system: paclitaxel-induced neuropathic pain; conditions: administered acutely; ref [27]; cited from earlier work
[7] = system: NMDA-induced cell death; conditions: ref [29]; cited from earlier work
[8] = system: primary cortical neurons; test: Glutamate/glycine-induced cell death in primary cortical neurons; format: cell-based, Sprague-Dawley rat; conditions: MK-801 20 μM; n = 3–4; p < 0.01 for each comparison
[9] = system: mechanical paw withdrawal thresholds, C57BL/6J mice; test: Paclitaxel-induced mechanical allodynia; format: in vivo; conditions: paclitaxel 4 mg/kg i.p. on day 0, 2, 4, 6; starting on day 7 and ongoing on day 15; p < 0.0001
[10] = system: p53 phosphorylated at Ser15; test: Western blot pSer15-p53 in lumbar spinal cord; format: in vivo, mouse; conditions: paclitaxel 4 mg/kg i.p. on day 0, 2, 4, 6, n = 5, p = 0.002
[11] = system: p38 MAPK; conditions: rats, cited from earlier work; for p38 MAPK activation in microglia: 5 minutes post treatment, returned to basal levels after 20 minutes, ref [46]
[12] = system: NR1 and NR2B; astrocytes and microglia in the lumbar spinal cord; conditions: direct intrathecal injections; ref [2]; cited from earlier work
[13] = system: nNOS; conditions: ref [6], [29]; cited from earlier work
[14] = target: His-nNOS_(1-299) (UniProt P29476-1 1-299); test: AlphaScreen or HTRF
Sequence of His-nNOS_(1-299) (P29476 1-299): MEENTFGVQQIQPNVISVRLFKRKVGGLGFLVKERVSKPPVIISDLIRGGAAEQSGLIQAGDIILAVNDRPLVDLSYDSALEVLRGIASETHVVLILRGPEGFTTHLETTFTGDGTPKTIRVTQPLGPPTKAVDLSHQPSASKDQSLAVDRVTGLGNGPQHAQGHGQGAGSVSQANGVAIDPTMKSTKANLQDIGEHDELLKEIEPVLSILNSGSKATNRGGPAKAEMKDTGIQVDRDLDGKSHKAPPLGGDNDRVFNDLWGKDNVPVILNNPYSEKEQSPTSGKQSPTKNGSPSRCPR

Sequence of His-nNOS1-299 and GST-NOS1AP400-506 (P29475 1-299): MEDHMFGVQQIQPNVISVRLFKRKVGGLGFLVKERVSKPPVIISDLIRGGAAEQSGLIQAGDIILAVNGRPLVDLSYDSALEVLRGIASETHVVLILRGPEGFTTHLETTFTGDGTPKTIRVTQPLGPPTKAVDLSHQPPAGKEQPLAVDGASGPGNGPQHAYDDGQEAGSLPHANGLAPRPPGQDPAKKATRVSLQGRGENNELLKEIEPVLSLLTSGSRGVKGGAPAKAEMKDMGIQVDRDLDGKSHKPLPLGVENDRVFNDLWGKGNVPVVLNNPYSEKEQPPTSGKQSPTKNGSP

Q: Which “disruption of nNOS-NOS1AP binding” value [1] does the source give for GRKKRRQRRRYAGQWGES [TAT-GESVΔ1] here?
A: The value was “Neither TAT-cp4GESV nor TAT-GESVΔ1 disrupted the interactions; also recorded: Neither TAT-GESVΔ1 nor TAT-cp4GESV disrupted the binding”.

Q: What about the “ipsilateral paw withdrawal thresholds vs saline, PSNL” value ([2]; 10 nmol i.t., acute, n = 6–10, TAT-GESV p < 0.05, TAT-GESVΔ1 p = 1) of the same molecule?
A: Its value is “did not differ”.

Q: And the “cold response times vs saline (i.t.) in paclitaxel-treated mice” value ([3]; 10 nmol i.t., n = 6, TAT-GESV p = 0.039, TAT-GESVΔ1 p = 1)?
A: The value was “did not differ from saline”.

Q: What about the “cold responsiveness, repeated dosing, PSNL” value ([4]; 10 nmol i.t. once daily, 8 consecutive days, n = 5–10, TAT-GESV vs saline p < 0.05, TAT-GESVΔ1 p > 0.25 for each comparison) of the same molecule?
A: The value was “did not reliably alter cold responsiveness relative to saline (i.t.), MK-801 (i.t.) or TAT-GESV (i.t.)”.

Q: And the “ipsilateral cold-response times vs saline, PSNL” value ([4]; 10 nmol i.t., acute, n = 6–10, TAT-GESV p < 0.01, TAT-GESVΔ1 p = 1)?
A: The value was “did not differ”.

Q: What about the “contralateral cold responsiveness, PSNL or sham” value ([4]; acute i.t., p = 0.39 (dose), p = 0.491 (drug), p = 0.882 (interaction)) of the same molecule?
A: Its value is “neither TAT-GESV nor TAT-GESVΔ1 altered mechanical or cold responsiveness in the paw contralateral to PSNL or sham surgery”.

Q: What about the “pERK1/2 elevation vs saline (i.t.), paclitaxel-treated mice” value ([5]; 5 nmol i.t., 20 min post injection, p > 0.4) of the same molecule?
A: The value was “neither TAT-GESV nor TAT-GESVΔ1 (5 nmol, i.t.) altered pERK1/2 elevation”.

Q: For `Oc1c(Cl)cc(Cl)cc1CNc1ccc2n[nH]nc2c1` [IC87201], which “suppression of paclitaxel-induced neuropathic pain” value [6] is on record?
A: Its value is “efficacious in suppressing paclitaxel-induced neuropathic pain”.

Q: And the “NMDAR-evoked nNOS-NOS1AP association/p38 MAPK-dependent cell death” value [7]?
A: Its value is “blocked”.

Q: What does the source list for `C[C@]12N[C@H](Cc3ccccc31)c1ccccc12` [MK-801]?
A: sustained mechanical efficacy, day 4–8, repeated dosing, PSNL ([2]; MK-801 5 nmol i.t. once daily, p < 0.001 for each comparison): similarly increased mechanical paw withdrawal thresholds relative to saline (i.t.) or TAT-GESVΔ1 (i.t.) with sustained efficacy; cold sensitivity vs saline, repeated dosing, PSNL ([4]; MK-801 5 nmol i.t. once daily, 8 consecutive days, n = 5–10, p = 0.072): approached significance; cell death vs all other groups exposed to glutamate/glycine [8]: Cell death was lower

Q: Which “disruption of nNOS-NOS1AP binding” value [1] does the source give for GRKKRRQRRRGESVYAGQW [TAT-cp4GESV] here?
A: The value was “Neither TAT-cp4GESV nor TAT-GESVΔ1 disrupted the interactions; also recorded: Neither TAT-GESVΔ1 nor TAT-cp4GESV disrupted the binding”.

Q: What about the NMDA-induced cell death [7] of the same molecule?
A: The NMDA-induced cell death was “did not disrupt NMDA activation-induced cell death”.

Q: For GRKKRRQRRR [TAT], which “disruption of nNOS-NOS1AP binding” value [1] is on record?
A: Its value is “did not interfere with the binding between His-nNOS1-299 and GST-NOS1AP400-506”.

Q: What does the source list for `CC(=O)O[C@H]1C(=O)[C@@]2(C)[C@H]([C@H](OC(=O)c3ccccc3)[C@]3(O)C[C@H](OC(=O)[C@H](O)[C@@H](NC(=O)c4ccccc4)c4ccccc4)C(C)=C1C3(C)C)[C@]1(OC(C)=O)CO[C@@H]1C[C@@H]2O` [Paclitaxel]?
A: mechanical paw withdrawal thresholds after paclitaxel vs vehicle [9]: lowered mechanical paw withdrawal thresholds; cold response times after paclitaxel vs vehicle ([3]; paclitaxel 4 mg/kg i.p. on day 0, 2, 4, 6, starting on day 7 and ongoing on day 15, p < 0.0001): increased cold response times; pSer15-p53 levels, paclitaxel-treated vs vehicle-treated mice [10]: increased lumbar spinal cord levels of pSer15-p53; pERK1/2 levels, paclitaxel-treated vs cremophor-vehicle treated mice ([5]; paclitaxel 4 mg/kg i.p. on day 0, 2, 4, 6, lumbar spinal cord, saline i.t., p < 0.0001): elevated pERK1/2 levels

Q: With `CN[C@H](CC(=O)O)C(=O)O` [NMDA, N-methyl-D-aspartate] as the molecule, how does the “spinal p38 MAPK activation” value ([11]; administration directly to the spinal cord, ref [45]) read?
A: Its value is “induced p38 MAPK activation”.

Q: For formalin, which “p38 MAPK activation in microglia” value [11] is on record?
A: Its value is “induced p38 MAPK activation in microglia 5 minutes post treatment”.

Q: Which “p38 MAPK activation in microglia” value [11] does the source give for substance P here?
A: Its value is “induced p38 MAPK activation in microglia 5 minutes post treatment”.

Q: Which “suppression of paclitaxel-induced neuropathic pain” value [6] does the source give for `O=C(O)c1ccc(NCc2cc(Cl)cc(Cl)c2O)cc1O` [ZL006] here?
A: Its value is “efficacious in suppressing paclitaxel-induced neuropathic pain”.

B1: CCL-1: chemokines C-C motif ligand 1 (protein, UniProt P22362 24-96, looked up)
C-C motif chemokine 1: KSMQVPFSRCCFSFAEQEIPLRAILCYRNTSSICSNEGLIFKLKRGKEACALDTVGWVQRHRKMLRHCPSKRK
Q: With B1 as the molecule, how does the “NR1 and NR2B phosphorylation, glial activation in lumbar spinal cord” value [12] read?
A: Its value is “induced phosphorylation of NR1 and NR2B and activated astrocytes and microglia in the lumbar spinal cord”.

B2: nNOS1-99: nNOS fragment disrupting nNOS-NOS1AP interactions (protein, UniProt P29475 1-99, looked up, fragment)
chain: MEDHMFGVQQIQPNVISVRLFKRKVGGLGFLVKERVSKPPVIISDLIRGGAAEQSGLIQAGDIILAVNGRPLVDLSYDSALEVLRGIASETHVVLILRG
Q: For B2, which “enzymatic activity of nNOS or production of NO” value [13] is on record?
A: Its value is “does not alter the enzymatic activity of nNOS or the production of NO”.

Q: Which IC50 [14] does the source give for GRKKRRQRRRYAGQWGESV [L-TAT-GESV] here?
A: The IC50 was 8.47 µM.
